# Laboratory results as given in patent US20220112187A1, “PYRAZOLOPYRIDINE AMINE COMPOUNDS FOR THE TREATMENT OF AUTOIMMUNE DISEASE” (Hoffmann-La Roche Inc., priority 2018, published 2022).
# Target: T1, human TLR7 (Homo sapiens, UniProt Q9NYK1)
# T1 sequence (Q9NYK1 27-1049): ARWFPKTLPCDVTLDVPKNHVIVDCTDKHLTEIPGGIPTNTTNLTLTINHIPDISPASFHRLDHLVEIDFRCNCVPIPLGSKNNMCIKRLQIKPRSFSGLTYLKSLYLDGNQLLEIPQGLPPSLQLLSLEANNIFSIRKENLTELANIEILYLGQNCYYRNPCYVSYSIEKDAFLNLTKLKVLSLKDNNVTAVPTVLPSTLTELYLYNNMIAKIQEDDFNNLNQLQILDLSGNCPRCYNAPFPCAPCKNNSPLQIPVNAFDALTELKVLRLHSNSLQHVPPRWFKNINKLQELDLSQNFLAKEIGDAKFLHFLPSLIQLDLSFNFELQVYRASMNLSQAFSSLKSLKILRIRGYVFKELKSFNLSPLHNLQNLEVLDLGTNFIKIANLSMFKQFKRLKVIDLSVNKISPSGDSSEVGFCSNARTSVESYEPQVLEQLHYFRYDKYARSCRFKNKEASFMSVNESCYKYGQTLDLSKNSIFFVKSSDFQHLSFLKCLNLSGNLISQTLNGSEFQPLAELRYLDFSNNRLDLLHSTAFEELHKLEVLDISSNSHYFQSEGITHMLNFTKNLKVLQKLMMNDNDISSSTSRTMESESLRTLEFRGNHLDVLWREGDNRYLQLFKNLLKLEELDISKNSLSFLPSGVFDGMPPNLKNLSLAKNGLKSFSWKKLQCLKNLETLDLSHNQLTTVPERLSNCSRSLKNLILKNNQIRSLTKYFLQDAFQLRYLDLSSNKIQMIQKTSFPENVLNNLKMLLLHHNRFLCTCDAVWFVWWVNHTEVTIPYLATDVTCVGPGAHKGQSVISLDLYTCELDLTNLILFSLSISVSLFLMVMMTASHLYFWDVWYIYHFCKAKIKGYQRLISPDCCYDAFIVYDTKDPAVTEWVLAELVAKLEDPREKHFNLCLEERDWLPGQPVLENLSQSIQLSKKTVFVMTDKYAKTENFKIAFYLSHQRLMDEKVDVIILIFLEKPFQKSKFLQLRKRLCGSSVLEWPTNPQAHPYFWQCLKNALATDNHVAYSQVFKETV
# Experiment: HEK293-Blue-hTLR-7 cells assay (SEAP reporter, R848 stimulation)
# Format: cell-based
# Conditions: HEK293-Blue-hTLR7 cells, R848 ligand, 20 hrs incubation
# Source text: A stable HEK293-Blue-hTLR-7 cell line was purchased from InvivoGen (Cat. #: hkb-htlr7, San Diego, Calif., USA). These cells were originally designed for studying the stimulation of human TLR7 by monitoring the activation of NF-κB. A SEAP (secreted embryonic alkaline phosphatase) reporter gene was placed under the control of the IFN-β minimal promoter fused to five NF-κB and AP-1-binding sites. The SEAP was induced by activating NF-κB and AP-1 via stimulating HEK-Blue hTLR7 cells with TLR7 ligands. Therefore the reporter expression was declined by TLR7 antagonist under the stimulation of a ligand, such as R848 (Resiquimod), for incubation of 20 hrs. The cell culture supernatant SEAP reporter activity was determined using QUANTI-Blue™ kit (Cat. #: rep-qb1, Invivogen, San Diego, Ca, USA) at a wavelength of 640 nm, a detection medium that turns purple or blue in the presence of alkaline phosphatase.
# HEK293-Blue-hTLR7 cells were incubated at a density of 250,000˜450,000 cells/mL in a volume of 170 μL in a 96-well plate in Dulbecco's Modified Eagle's medium (DMEM) containing 4.5 g/L glucose, 50 U/mL penicillin, […], […], 2 mM L-glutamine, 10% (v/v) heat-inactivated fetal bovine serum with addition of 20 μL test compound in a serial dilution in the presence of final DMSO at 1% and 10 μL of 20 uM R848 in above DMEM, perform incubation under 37° C. in a CO2 incubator for 20 hrs. Then 20 μL of the supernatant from each well was incubated with 180 μL Quanti-blue substrate solution at 37° C. for 2 hrs and the absorbance was read at 620˜655 nm using a spectrophotometer. The signalling pathway that TLR7 activation leads to downstream NF-κB activation has been widely accepted, and therefore similar reporter assay was modified for evaluating TLR7 antagonist.
row,IC50 [nM],SMILES
1,120,"C[C@@H]1CN(c2ccc(C#N)n3nccc23)C[C@H](CN2CCN[C@H](c3ccccc3)C2)O1 [Example 38, 4-[(2R,6S)-2-methyl-6-[[(3R)-3-phenylpiperazin-1-yl]methyl]morpholin-4-yl]pyrazolo[1,5-a]pyridine-7-carbonitrile]"
2,230,"C[C@@H]1CN(c2ccc(C#N)n3nccc23)C[C@H](CN2CCC3NCC3C2)O1 (stereo partly drawn) [Example 70, 4-[(2S,6R)-2-(3,7-diazabicyclo[4.2.0]octan-3-ylmethyl)-6-methyl-morpholin-4-yl]pyrazolo[1,5-a]pyridine-7-carbonitrile]"
3,830,"C[C@@H]1CN(c2ccc(C#N)n3nccc23)C[C@H](CN2CC(N)C(F)(F)C2)O1 (stereo partly drawn) [Example 35, 4-[(2S,6R)-2-[(4-amino-3,3-difluoro-pyrrolidin-1-yl)methyl]-6-methyl-morpholin-4-yl]pyrazolo[1,5-a]pyridine-7-carbonitrile]"
4,270,"C[C@@H]1CN(c2ccc(C#N)n3nccc23)C[C@H](CN2CC3CCNCC32)O1 (stereo partly drawn) [Example 56, 4-[(2S,6R)-2-(3,8-diazabicyclo[4.2.0]octan-8-ylmethyl)-6-methyl-morpholin-4-yl]pyrazolo[1,5-a]pyridine-7-carbonitrile]"
5,140,"CC1CNCCN1C[C@H]1CN(c2ccc(C#N)n3nccc23)C[C@@H](C)O1 (single isomer, unassigned) [Example 50B]"
6,78,"C[C@@H]1CN(c2ccc(C#N)n3nccc23)C[C@H](CN2CCC3NCCC3C2)O1 (stereo partly drawn) [Example 41, 4-[(2S,6R)-2-(1,2,3,3a,4,6,7,7a-octahydropyrrolo[3,2-c]pyridin-5-ylmethyl)-6-methyl-morpholin-4-yl]pyrazolo[1,5-a]pyridine-7-carbonitrile]"
7,54,"C[C@@H]1CN(c2ccc(C#N)n3nccc23)C[C@H](CN2CCNCC2)O1 [Example 5, 4-[(2R,6S)-2-methyl-6-(piperazin-1-ylmethyl)morpholin-4-yl]pyrazolo[1,5-a]pyridine-7-carbonitrile]"
8,450,"C[C@@H]1CN(c2ccc(C#N)n3nccc23)C[C@H](CN2CCOC3(CCNCC3)C2)O1 [Example 71, 4-[(2R,6S)-2-methyl-6-(1-oxa-4,9-diazaspiro[5.5]undecan-4-ylmethyl)morpholin-4-yl]pyrazolo[1,5-a]pyridine-7-carbonitrile]"
9,920,"C[C@@H]1CN(c2ccc(C#N)n3nccc23)C[C@H](CN2CCC3(CN(C)CCO3)C2)O1 (stereo partly drawn) [Example 76, 4-[(2R,6S)-2-methyl-6-[(9-methyl-6-oxa-2,9-diazaspiro[4.5]decan-2-yl)methyl]morpholin-4-yl]pyrazolo[1,5-a]pyridine-7-carbonitrile]"
10,240,"C[C@@H]1CN(c2ccc(C#N)n3nccc23)C[C@H](CN2CCCC3(CCNC3)C2)O1 (stereo partly drawn) [Example 44, 4-[(2S,6R)-2-(2,7-diazaspiro[4.5]decan-7-ylmethyl)-6-methyl-morpholin-4-yl]pyrazolo[1,5-a]pyridine-7-carbonitrile]"
11,83,"C[C@@H]1CN(c2ccc(C#N)n3nccc23)C[C@H](CN2CC3(CCCNC3)C2)O1 [Example 10, 4-[(2S,6R)-2-(2,8-diazaspiro[3.5]nonan-2-ylmethyl)-6-methyl-morpholin-4-yl]pyrazolo[1,5-a]pyridine-7-carbonitrile]"

# More lines, now with the values behind:
row,SMILES,IC50 [nM]
1,"C[C@@H]1CN(c2ccc(C#N)n3nccc23)C[C@H](CN2CC3(CCNCC3)C2)O1 [Example 24, 4-[(2S,6R)-2-(2,7-diazaspiro[3.5]nonan-2-ylmethyl)-6-methyl-morpholin-4-yl]pyrazolo[1,5-a]pyridine-7-carbonitrile]",100
2,"C[C@@H]1CN(c2ccc(C#N)n3nccc23)C[C@H](CN2CCC(C)(N)CC2)O1 [Example 29, 4-[(2S,6R)-2-[(4-amino-4-methyl-1-piperidyl)methyl]-6-methyl-morpholin-4-yl]pyrazolo[1,5-a]pyridine-7-carbonitrile]",76
3,"C[C@@H]1CN(c2ccc(C#N)n3nccc23)C[C@H](CN2CCN(C3CCNCC3)CC2Cc2ccccc2)O1 (stereo partly drawn) [Example 77, 4-[(2S,6R)-2-[[2-benzyl-4-(4-piperidyl)piperazin-1-yl]methyl]-6-methyl-morpholin-4-yl]pyrazolo[1,5-a]pyridine-7-carbonitrile]",160
4,"C[C@@H]1CN(c2ccc(C#N)n3nccc23)C[C@H](CN2C3COCC2CC(N)C3)O1 (stereo partly drawn) [Example 58, 4-[(2S,6R)-2-[(7-amino-3-oxa-9-azabicyclo[3.3.1]nonan-9-yl)methyl]-6-methyl-morpholin-4-yl]pyrazolo[1,5-a]pyridine-7-carbonitrile]",90
5,"C[C@@H]1CN(c2ccc(C#N)n3nccc23)C[C@H](CN2CCC3(CCNC3)C2)O1 (stereo partly drawn) [Example 6, 4-[(2S,6R)-2-(2,7-diazaspiro[4.4]nonan-2-ylmethyl)-6-methyl-morpholin-4-yl]pyrazolo[1,5-a]pyridine-7-carbonitrile]",200
6,"C[C@@H]1CN(c2ccc(C#N)n3nccc23)C[C@H](CN2CCC3(CCNCC3)CC2)O1 [Example 3, 4-[(2S,6R)-2-(3,9-diazaspiro[5.5]undecan-3-ylmethyl)-6-methyl-morpholin-4-yl]pyrazolo[1,5-a]pyridine-7-carbonitrile]",240
7,"C[C@@H]1CN(c2ccc(C#N)n3nccc23)C[C@H](CN2CCNC3(CC3)C2)O1 [Example 40, 4-[(2S,6R)-2-(4,7-diazaspiro[2.5]octan-7-ylmethyl)-6-methyl-morpholin-4-yl]pyrazolo[1,5-a]pyridine-7-carbonitrile]",95
8,"C[C@@H]1CN(c2ccc(C#N)n3nccc23)C[C@H](CN2CCC3(CCCNC3)CC2)O1 [Example 27, 4-[(2S,6R)-2-(2,9-diazaspiro[5.5]undecan-9-ylmethyl)-6-methyl-morpholin-4-yl]pyrazolo[1,5-a]pyridine-7-carbonitrile]",130
9,"C[C@@H]1CN(c2ccc(C#N)n3nccc23)C[C@H](CN2CCC(N3CCCCC3)CC2)O1 [Example 16, 4-[(2R,6S)-2-methyl-6-[[4-(1-piperidyl)-1-piperidyl]methyl]morpholin-4-yl]pyrazolo[1,5-a]pyridine-7-carbonitrile]",100
10,"C[C@@H]1CN(c2ccc(C#N)n3nccc23)C[C@H](CN2CC3CCC2CN3)O1 (stereo partly drawn) [Example 30, 4-[(2S,6R)-2-(2,5-diazabicyclo[2.2.2]octan-2-ylmethyl)-6-methyl-morpholin-4-yl]pyrazolo[1,5-a]pyridine-7-carbonitrile]",46
11,"C[C@@H]1CN(c2ccc(C#N)n3nccc23)C[C@H](CN2CCC3(CCCCN3)CC2)O1 [Example 47, 4-[(2S,6R)-2-(1,9-diazaspiro[5.5]undecan-9-ylmethyl)-6-methyl-morpholin-4-yl]pyrazolo[1,5-a]pyridine-7-carbonitrile]",180
12,"C[C@@H]1CN(c2ccc(C#N)n3nccc23)C[C@H](CN2C3CNCC2COC3)O1 [Example 57, 4-[(2R,6S)-2-methyl-6-(3-oxa-7,9-diazabicyclo[3.3.1]nonan-9-ylmethyl)morpholin-4-yl]pyrazolo[1,5-a]pyridine-7-carbonitrile]",73
13,"C[C@@H]1CN(c2ccc(C#N)n3nccc23)C[C@H](CN2CC3CCC(C2)C3N)O1 (stereo partly drawn) [Example 36, 4-[(2S,6R)-2-[(8-amino-3-azabicyclo[3.2.1]octan-3-yl)methyl]-6-methyl-morpholin-4-yl]pyrazolo[1,5-a]pyridine-7-carbonitrile]",38
